Usually IC50 stands for the midpoint of a concentration-inhibition curve. The low end stands for inhibition by little substance, the high end for a need for much substance.

This note sets out measurements from patent US20070249670A1, “Glycogen Phosphorylase Inhibitor Compounds and Pharmaceutical Compositions Thereof” (SMITHKLINE BEECHAM CORPORATION, priority 2004, published 2007).

Where a name gives a salt, the structure may show the parent alone.

The target in this experiment is T1, human liver glycogen phosphorylase a (HLGPa) (Homo sapiens, UniProt P06737).
T1 construct: creating a full-length cDNA fused at the 5′ end to codons for methionine-glycine-alanine-histidine; 6xHis tag (leader Met-Gly-Ala-His6-Gly-Gly) (N); made in house; host or cells: E. coli (bacterial expression plasmid pTXK1007LTev)
T1 sequence (P06737 2-847 limits assumed): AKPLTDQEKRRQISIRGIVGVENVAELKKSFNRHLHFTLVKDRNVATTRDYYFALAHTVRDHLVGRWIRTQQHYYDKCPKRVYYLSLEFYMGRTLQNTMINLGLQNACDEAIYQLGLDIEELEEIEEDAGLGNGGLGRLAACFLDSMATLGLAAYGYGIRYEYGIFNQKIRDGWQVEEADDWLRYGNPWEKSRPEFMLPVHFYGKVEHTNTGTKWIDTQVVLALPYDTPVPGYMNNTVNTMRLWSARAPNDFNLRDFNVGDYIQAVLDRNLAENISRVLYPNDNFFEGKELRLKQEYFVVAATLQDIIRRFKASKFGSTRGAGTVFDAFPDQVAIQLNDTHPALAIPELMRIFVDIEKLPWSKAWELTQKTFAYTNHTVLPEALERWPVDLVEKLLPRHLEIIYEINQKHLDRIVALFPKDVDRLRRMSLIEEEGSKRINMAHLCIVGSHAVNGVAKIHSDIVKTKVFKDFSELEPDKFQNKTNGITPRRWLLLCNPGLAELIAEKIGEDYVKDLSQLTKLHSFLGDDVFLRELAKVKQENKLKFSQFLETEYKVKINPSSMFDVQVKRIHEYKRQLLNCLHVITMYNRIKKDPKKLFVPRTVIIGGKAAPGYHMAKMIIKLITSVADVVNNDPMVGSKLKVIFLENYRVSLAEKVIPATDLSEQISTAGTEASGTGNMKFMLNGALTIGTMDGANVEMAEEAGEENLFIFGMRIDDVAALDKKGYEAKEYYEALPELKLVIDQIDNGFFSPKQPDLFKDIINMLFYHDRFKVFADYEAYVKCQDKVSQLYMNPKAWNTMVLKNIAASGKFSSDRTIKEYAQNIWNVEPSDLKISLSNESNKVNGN
The experiment in a line: Human liver glycogen phosphorylase a enzymatic activity assay (coupled, fluorescent resorufin readout, with and without 10 mM glucose). Format: biochemical.

Where [1] appears, read: human liver glycogen phosphorylase a, table does not say whether with or without 10 mM glucose.
The mark [2] stands for this setting: human liver glycogen phosphorylase a enzymatic activity assay.

Under setting [1], `Cc1cc(C)c(NC(=O)Nc2cc3ccccc3cc2C(=O)NC(C(=O)O)C2CCC(NC3CCC3)CC2)c(C)c1` (mixture of isomers) [Example 347, (cis and trans)-[4-(cyclobutylamino)cyclohexyl]({[3-({[(2,4,6-trimethylphenyl)amino]carbonyl}amino)-2-naphthalenyl]carbonyl}amino)acetic acid] yielded an IC50 of 0.81 µM.

Under setting [1], `Cc1cc(C)c(NC(=O)Nc2cc3ccccc3cc2C(=O)NC(C(=O)O)C2CCC(N3CCOCC3)CC2)c(C)c1` (mixture of isomers) [Example 348, (cis and trans)-[4-(4-morpholinyl)cyclohexyl]({[3-({[(2,4,6-trimethylphenyl)amino]carbonyl}amino)-2-naphthalenyl]carbonyl}amino)acetic acid] displayed an IC50 of 1.86 µM. Same read-out and setting: with `COC(=O)C(NC(=O)c1cc2ccccc2cc1NC(=O)Nc1c(C)cc(C)cc1C)C1CCC(NC(=O)OC(C)(C)C)CC1` (mixture of isomers) [Example 349, (cis and trans)-methyl[4-({[(1,1-dimethylethyl)oxy]carbonyl}amino)cyclohexyl] ({[3-({[(2,4,6-trimethylphenyl)amino]carbonyl}amino)-2-naphthalenyl]carbonyl}amino)acetate] the figure was 6.89 µM; with `Cc1cc(C)c(NC(=O)Nc2cc3ccccc3cc2C(=O)NC(C(=O)O)C2CCC(NC(=O)OC(C)(C)C)CC2)c(C)c1` (mixture of isomers) [Example 350, (cis and trans)-[4-({[(1,1-dimethylethyl)oxy]carbonyl}amino)cyclohexyl]({[3-({[(2,4,6-trimethylphenyl)amino]carbonyl}amino)-2-naphthalenyl]carbonyl}amino)acetic acid], 0.044 µM. On the same count and under the same terms, with `Cc1cc(C)c(NC(=O)Nc2cc3ccccc3cc2C(=O)NC(C(=O)O)C2CCC(N)CC2)c(C)c1` (mixture of isomers) [Example 351, (cis and trans)-(4-aminocyclohexyl)({[3-({[(2,4,6-trimethylphenyl)amino]carbonyl}amino)-2-naphthalenyl]carbonyl}amino)acetic acid trifluoroacetate] the figure was 2.37 µM; with `CNC(=O)NC1CCC(C(NC(=O)c2cc3ccccc3cc2NC(=O)Nc2c(C)cc(C)cc2C)C(=O)O)CC1` (mixture of isomers) [Example 352, (cis and trans)-(4-{[(methylamino)carbonyl]amino}cyclohexyl)({[3-({[(2,4,6-trimethylphenyl)amino]carbonyl}amino)-2-naphthalenyl]carbonyl}amino)acetic acid], 0.1 µM. `Cc1cc(C)c(NC(=O)Nc2cc(Cl)cnc2C(=O)N[C@H](C(=O)O)C(C)OC(C)(C)C)c(C)c1` (stereo in doubt) [Example 318, N-{[5-chloro-3-({[(2,4,6-trimethylphenyl)amino]carbonyl}amino)-2-pyridinyl]carbonyl}-O-(1,1-dimethylethyl)-L-threonine] displayed a concentration for half-maximal inhibition (IC50) under setting [1] of 4.28 µM.

Under setting [2], `Cc1cccc(C)c1NC(=O)Nc1sc2c(c1C(=O)N[C@H](C(=O)O)C(C)C)CCCC2` [Example 3, N-{[2-({[(2,6-dimethylphenyl)amino]carbonyl}amino)-4,5,6,7-tetrahydro-1-benzothien-3-yl]carbonyl}-L-valine] had an IC50 of 32.2 µM. Still for that read-out and setting: with `Cc1cccc(C)c1NC(=O)Nc1sc2ccccc2c1C(=O)N[C@H](C(=O)O)C1CCCCC1` [Example 4, (2S)-cyclohexyl({[2-({[(2,6-dimethylphenyl)amino]carbonyl}amino)-1-benzothien-3-yl]carbonyl}amino)acetic acid] the figure was 0.73 µM; with `Cc1cccc(Cl)c1NC(=O)Nc1cc2ccccc2cc1C(=O)NC(C(=O)O)C1CCCNC1` (centres unmarked) [Example 5, {[3-({[(2-chloro-6-methylphenyl)amino]carbonyl}amino)-2-naphthoyl]amino}(piperidin-3-yl)acetic acid trifluoroacetate], 20.9 µM. On the same count and under the same terms, the value for `Cc1cc(CNC(=O)c2cc3ccccc3cc2NC(=O)Nc2c(C)cccc2Cl)on1` [Example 6, 3-({[(2-chloro-6-methylphenyl)amino]carbonyl}amino)-N-[(3-methylisoxazol-5-yl)methyl]-2-naphthamide] was 35.1 µM. On the same count and under the same terms, with `Cc1ccccc1CC(=O)Nc1cc2ccccc2cc1C(=O)N[C@H](C(=O)O)C1CCCCC1` [Example 7, (2S)-cyclohexyl{[(3-{[(2-methylphenyl)acetyl]amino}-2-naphthalenyl)carbonyl]amino}ethanoic acid] the figure was 17 µM. Under setting [2], `O=C(O)C[C@H](NC(=O)c1cc2ccccc2cc1NC(=O)Nc1ccccc1Cl)C(=O)O` [Example 9, N-[3-({[(2-chlorophenyl)amino]carbonyl}amino)-2-naphthoyl]-L-aspartic acid] had an IC50 of 2.78 µM. `Cc1ccccc1NC(=O)Nc1cc2ccccc2cc1C(=O)NCC(=O)O` [Example 10, N-[3-({[(2-methylphenyl)amino]carbonyl}amino)-2-naphthoyl]glycine] came in with an IC50 under setting [2] of 6.5 µM.

On to `Cc1cccc(C)c1NC(=O)Nc1cc2ccccc2cc1C(=O)NCC(=O)O` [Example 11, N-[3-({[(2,6-dimethylphenyl)amino]carbonyl}amino)-2-naphthoyl]glycine], for which, under setting [2], the midpoint of inhibition, the IC50, lay at 0.09 µM. Still for that read-out and setting: the value for `O=C(O)CNC(=O)c1cc2ccccc2cc1NC(=O)Nc1ccccc1Cl` [Example 12, N-[3-({[(2-chlorophenyl)amino]carbonyl}amino)-2-naphthoyl]glycine] was 2.52 µM; that for `Cc1ccccc1NC(=O)Nc1cc2ccccc2cc1C(=O)N[C@@H](C)C(=O)O` [Example 13, N-[3-({[(2-methylphenyl)amino]carbonyl}amino)-2-naphthoyl]-L-alanine] was 15.5 µM; that for `Cc1ccccc1NC(=O)Nc1cc2ccccc2cc1C(=O)N[C@H](C(=O)O)[C@@H](C)O` [Example 14, N-[3-({[(2-methylphenyl)amino]carbonyl}amino)-2-naphthoyl]-L-threonine] was 6.41 µM. On the same count and under the same terms, the value for `CC[C@H](C)[C@H](NC(=O)c1cc2ccccc2cc1NC(=O)Nc1ccccc1C)C(=O)O` [Example 15, N-[3-({[(2-methylphenyl)amino]carbonyl}amino)-2-naphthoyl]-L-isoleucine] was 11 µM. The same measure, in the same setting: with `Cc1ccccc1NC(=O)Nc1cc2ccccc2cc1C(=O)N[C@@H](CC(C)C)C(=O)O` [Example 16, N-[3-({[(2-methylphenyl)amino]carbonyl}amino)-2-naphthoyl]-L-leucine] the figure was 5.1 µM; with `Cc1ccccc1NC(=O)Nc1cc2ccccc2cc1C(=O)N[C@@H](CC(N)=O)C(=O)O` [Example 17, N-[3-({[(2-methylphenyl)amino]carbonyl}amino)-2-naphthoyl]-L-asparagine], 4.72 µM. Under setting [2], `Cc1cccc(C)c1NC(=O)Nc1cc2ccccc2cc1C(=O)N[C@@H](C)C(=O)O` [Example 18, N-[3-({[(2,6-dimethylphenyl)amino]carbonyl}amino)-2-naphthoyl]-L-alanine] displayed an IC50 of 1.48 µM. Against the preceding compound, the IC50 is about 3.2-fold lower. Regarding `Cc1cccc(C)c1NC(=O)Nc1cc2ccccc2cc1C(=O)N[C@@H](CO)C(=O)O` [Example 19, N-[3-({[(2,6-dimethylphenyl)amino]carbonyl}amino)-2-naphthoyl]-L-serine], the IC50 under setting [2] came to 2 µM. This IC50 and that of the compound before are within 1.5-fold of each other. The same measure, in the same setting: with `Cc1cccc(C)c1NC(=O)Nc1cc2ccccc2cc1C(=O)N1CCC[C@H]1C(=O)O` [Example 20, 1-[3-({[(2,6-dimethylphenyl)amino]carbonyl}amino)-2-naphthoyl]-L-proline] the figure was 2.24 µM; with `Cc1cccc(C)c1NC(=O)Nc1cc2ccccc2cc1C(=O)N[C@H](C(=O)O)C(C)C` [Example 21, N-[3-({[(2,6-dimethylphenyl)amino]carbonyl}amino)-2-naphthoyl]-L-valine], 1.96 µM; with `Cc1cccc(C)c1NC(=O)Nc1cc2ccccc2cc1C(=O)N[C@H](C(=O)O)[C@@H](C)O` [Example 22, N-[3-({[(2,6-dimethylphenyl)amino]carbonyl}amino)-2-naphthoyl]-L-threonine], 1.08 µM. Still for that read-out and setting: the value for `CC[C@H](C)[C@H](NC(=O)c1cc2ccccc2cc1NC(=O)Nc1c(C)cccc1C)C(=O)O` [Example 23, N-[3-({[(2,6-dimethylphenyl)amino]carbonyl}amino)-2-naphthoyl]-L-isoleucine] was 0.89 µM; that for `Cc1cccc(C)c1NC(=O)Nc1cc2ccccc2cc1C(=O)N[C@@H](CC(C)C)C(=O)O` [Example 24, N-[3-({[(2,6-dimethylphenyl)amino]carbonyl}amino)-2-naphthoyl]-L-leucine] was 1.19 µM. Still for that read-out and setting: the value for `Cc1cccc(C)c1NC(=O)Nc1cc2ccccc2cc1C(=O)N[C@@H](CC(N)=O)C(=O)O` [Example 25, N-[3-({[(2,6-dimethylphenyl)amino]carbonyl}amino)-2-naphthoyl]-L-asparagine] was 0.67 µM.
